Data as given in US11459586B2, “Methods for increasing efficiency of nuclease-mediated gene editing in stem cells” (President and Fellows of Harvard College, priority 2016, dated 2022).

System: human iPSC
Test: Jak2 V617F single base pair editing in hiPSC, HR and NHEJ by MiSeq
Type: cell-based
Source text: FIGS. 6A-C. Bcl-2 overexpression increases the efficiency of engineering single base pair changes using ssODN donors in human iPSC. FIG. 6A. A sgRNA was designed to target exon 14 of human JAK2. The V617F mutation was encoded within 110 bp ssODN donors (in either the plus or minus orientation) or a plasmid containing 1.9 kb and 1.3 kb flanking homology arms. Small triangles indicate the primer sites for the genotyping PCR reaction outside the ssODN sequence. Plain human iPSC were transfected with 2 μg “Cas9 only sgRNA” or “Cas9 Bcl-2 sgRNA” expression plasmid and/or 10 μM ssODN or 2 μg V617F plasmid donor. 17 days later, cells were harvested for genomic DNA purification. The genomic region around exon 14 was PCR amplified and analyzed by MiSeq. FIG. 6B. […] The percent of MiSeq reads containing the Jak2 V617F mutation (HR) or indel mutations (NHEJ) is indicated together with a plot of bp position along the PCR product versus the number of sequencing reads. […]
A second round of nested PCR with PCR index primers sold under the trademark NEXTERA™ index primers (IIlumina) was used to add barcodes and remaining adaptor sequences. Both PCR reactions were supplemented with fluorescent dye sold under the trademark SYBR® Green (Invitrogen) and monitored on a quantitative PCR machine to prevent over-amplification. […]

## Bcl-2: B cell lymphoma 2 protein, anti-apoptotic, overexpressed from lentivirus or Cas9 plasmid
Oligo (ssODN) donors, Bcl-2 on the Cas9 plasmid
  increase of absolute recombination frequency (HR): 2-4 fold
Plasmid donor, Bcl-2 on the Cas9 plasmid (from 25% without)
  absolute recombination frequency (HR): 39%
